Patent publication US4997818A, “Therapeutic method for selectively treating terminal deoxynucleotidyl transferase-positive neoplastic leukemias and lymphomas” (The University Hospital, priority 1989, dated 1991)
pIC50: −log10 of the molar value.

How the values were obtained:
[1] = target: T1, terminal deoxynucleotidyl transferase (TdT) (Bos taurus, UniProt P06526); assay: TdT enzyme assay (3H-dGTP incorporation); assay type: biochemical, calf
T1 construct: purchased DuPont/NEN Products, Boston, Massachusetts; host or cells: calf thymus
Procedure: (§1) Initially, the effect of various ddNTPs on TdT and DNA polymerase alpha was evaluated. DNA polymerase alpha, purified from calf thymus according to Kornberg [DNA Replication, W.H. Freeman and Company, 1980, p 206]and Wahl et al. [Biochemistry 23:1895 (1984)] was purchased from Pharmacia, Inc. (Piscataway, N.J.). TdT, purified from calf thymus, was purchased from DuPont/NEN Products, Boston, Massachusetts). Enzyme assays were conducted at 37 C. under conditions established to be optimal for each assay. For DNA polymeraseα, 0.1 ml of reaction mixture contained: 0.05 M tris-HCl (pH 8.3); 4 mM dithiothreitol; 4 mM MgCl; 10 ug poly(dAT); 0.05 mM ^3 H-dATP; 0.05 mM dTTP; and 0.05 units of enzyme. For TdT assays, 0.1 ml of standard reaction mixture contained: 0.05 M tris-HCl (pH 8.3); 2 mM dithiothreitol; 0.6 mM MnCl; 20 ug oligo(dA) 50; 0.1 mM ^3 H-dGTP; and 0.5 units of TdT.
For these studies, ddNTPs were dissolved in deionized distilled water and added to the respective reaction mixtures at time zero to give the effective final concentrations. The degree of reaction or inhibition was calculated from simultaneous control reactions. The mode of inhibition and inhibition constants were determined using Linweaver-Burke and Dixon plots. Each of the respective reactions was stopped using 0.5 ml of cold (4 C) 0.1 M sodium pyrophosphate containing 1 mg/ml yeast RNA (hereinafter"NaPP") and precipitated with 0.5 ml of cold 25% trichloroacetic acid (hereinafter "TCA"). The precipitates centrifuged at 13,000×gravity in a microfuge for one minute; resolubilized in 0.2 ml of 0.3M NaOH; and then reprecipitated with NaPP and TCA. Following a second 0.3 M NaOH resolubilization, 10 ml of scintiverse II (Fisher Scientific Company, Fairlawn, N.J.) was added to each sample for counting in a Beckman LS3700 liquid scintillation counter.
(§2) It should be noted also that for certain TdT assays, a variety of different initiators were used in place of oligo (dA) 50. These included: activated DNA; 5'-^32 T-GTCCGTCTCTGCCTC-3' (15 MER synthesized on an automated synthesizer using standard phosphoramidite chemistry having a ^32 P-end labeled by a standard Maxam-Gilbert reaction); YEP-FG-2-plasmid DNA; oligo (dC) 18; oligo (dT) 18; and various ^3 H-substrates such as dCTP, dATP, and dTTP in place of ^3 H-dGTP. Reactions utilizing the 15 MER initiator contained either 5 mM MgCl2 or 1 mM CoCl2 in place of MnCl2.

[2] = test system: fresh leukemia cell cultures; assay: Ex-vivo viability of fresh leukemia cells from patients (trypan blue); assay type: cell-based, human; conditions: 30 uM CF alone, two instances
Source text: Leukemic blast cells from bone marrow or peripheral blood were obtained from 12 patients; of these, six persons were diagnosed as afflicted with acute lymphatic leukemia; three persons were diagnosed as afflicted with acute myeloblastic leukemia; two persons were diagnosed as afflicted with blastic chronic myelogenous leukemia; and one person was diagnosed as having acute myelogenous leukemia, complicating multiple myeloma. These diagnoses were based upon standard clinical and laboratory criteria. In ten of these twelve patients, blast cells constituted more than 75% of the mononuclear cells. In the eleventh and twelfth patients, 32% and 42% of the mononuclear cells were blast cells.
The leukemic cells from each person were enriched on Ficoll-Hypaque medium; washed in phosphate-buffered saline without divalent cations; resuspended in RPMI-1640 medium containing 20% FCS; and then grown in RPMI-1640 media supplemented with 10% FCS. The TdT status of each cell sample was independently determined by conventional biochemical assay before culturing. […] The six TdT-positive cases all had acute lymphoblastic leukemia.
Experimentally, all twelve fresh leukemia cell cultures were continuously exposed ex-vivo to 250 uM of ddA and 30 uM of CF for 72 hours. Each was then individually evaluated for viability as determined by trytan blue staining. The empirical results are illustrated by FIG. 6. […]

TdT-positive cell lines = assay: Growth inhibition, summary over TdT-positive cell lines; assay type: cell-based; conditions: 48 hour
Procedure: (§3) Each cell line was utilized in exponential growth phase. For test purposes, cells were seeded at […] cells/ml in T25 flasks containing 4 ml of culture medium. Cell counts were made using a hemocytometer. Cell viability was determined using the tryptan blue dye exclusion method. The degree of growth inhibition was calculated by comparison with untreated controls.
(§4) Initially, the effect of a 48 hour continuous exposure to 250 uM and 500 uM of ddA upon four TdT-positive and three TdT-negative cell lines was evaluated.
(§5) The growth inhibition data of Table V is defined as the ratio of viable cells in the ddA exposed cultures in comparison to control cultures. Each determination reflects the mean of triplicate flasks. It is noted that at 250 uM of ddA, there was marked growth inhibition (30-80%) in all four TdT-positive cell lines whereas there was very little effect among the TdT-negative cells (0-15% growth inhibition). At 500 uM of ddA, the cytotoxicity in the TdT-positive lines was further increased (92-99% growth inhibition). At this concentration level, 2 of the 3 TdT-negative lines also show measureable growth inhibition (40-50%).
(§6) As a result, another series of experiments was conducted in which the non-selective purinogenic cytotoxicity was reduced. […]

L1210 = assay: Growth inhibition, viable cell count by trypan blue exclusion; assay type: cell-based; conditions: Mus musculus; L1210, TdT negative, 48 hour continuous exposure
Procedure: as §3, §4, §5

298-26 = assay: as above; assay type: cell-based, Murine; conditions: Mus musculus; 298-26, TdT positive, 48 hour continuous exposure
Procedure: as §3, §4, §5, §6

8392 = assay: as above; assay type: cell-based; conditions: Homo sapiens; 8392, TdT negative, 48 hour continuous exposure
Procedure: as §3, §4, §5
(§7) As a result, another series of experiments was conducted in which the non-selective purinogenic cytotoxicity was reduced. In this experimental series, a variety of different cell lines were pre-incubated for 30 minutes with the adenosine deaminase inhibitor, coformycin (CF). This CF exposure was then followed by a continuous 48 hour exposure to 250 uM ddA with suitable controls. Growth inhibition was defined as the ratio of viable cells in the CF/ddA exposed cell cultures in comparison to control cultures. Each determination reflects the mean of quadruplicate flasks. The results are provided by FIG. 3 and Table VI respectively.

ML3 = assay: as above; assay type: cell-based; conditions: Homo sapiens; ML3, TdT negative, 48 hour continuous exposure
Procedure: as §3, §4, §5, §7

NALM-6 = assay: as above; assay type: cell-based; conditions: Homo sapiens; NALM-6, TdT positive, 48 hour continuous exposure
Procedure: as §3, §4, §5, §7

HPB-ALL = assay: as above; assay type: cell-based; conditions: Homo sapiens, HPBALL, TdT positive, 48 hour continuous exposure
Procedure: as §3, §4, §5, §7

MOLT-4 = assay: as above; assay type: cell-based; conditions: Homo sapiens; MOLT-4, TdT positive, 48 hour continuous exposure
Procedure: as §3, §4, §5, §7

TdT-negative cell lines = assay: Growth inhibition, summary over TdT-negative cell lines; assay type: cell-based; conditions: 48 hour
Procedure: as §3, §4, §5

DNA polymerase alpha = DNA polymerase alpha enzyme assay; assay type: biochemical, calf
Procedure: as §1
For these studies, ddNTPs were dissolved in deionized distilled water and added to the respective reaction mixtures at time zero to give the effective final concentrations. The degree of reaction or inhibition was calculated from simultaneous control reactions. The mode of inhibition and inhibition constants were determined using Linweaver-Burke and Dixon plots. […]

[3] = target: T1, terminal deoxynucleotidyl transferase (TdT); assay: TdT-catalyzed polymerization on 32P-labelled 15 MER initiator, autoradiograph (chain termination); assay type: biochemical, calf; conditions: ddATP as substrate, MgCl2 or CoCl2
Source text: as §2
It should be noted that the mechanism of inhibition by any of the ddNTPs upon TdT catalysis is by chain termination. […] A radiolabelled oligomer (^32 P-GTCCGTCTCTGCCTC-3') shown in Lane 1 was used as an initiator for TdT-catalyzed polymerization using: dATP (Lanes 2 and 4); or ddATP (Lanes 3 and 5 ) as substrates. Lanes 2 and 3 represent the reaction products generated in the presence of MgCl2 while Lanes 4 and 5 represent the reaction products generated in the presence of CoCl2 respectively. Each reaction product was electrophoresed on a 20% polyacrylamide gel under denaturing conditions (2.5 hours at 35 watts, 2800 volts). […] Thus, the effectiveness of chain termination by ddATP is clearly established.

T1 sequence (P06526 whole entry): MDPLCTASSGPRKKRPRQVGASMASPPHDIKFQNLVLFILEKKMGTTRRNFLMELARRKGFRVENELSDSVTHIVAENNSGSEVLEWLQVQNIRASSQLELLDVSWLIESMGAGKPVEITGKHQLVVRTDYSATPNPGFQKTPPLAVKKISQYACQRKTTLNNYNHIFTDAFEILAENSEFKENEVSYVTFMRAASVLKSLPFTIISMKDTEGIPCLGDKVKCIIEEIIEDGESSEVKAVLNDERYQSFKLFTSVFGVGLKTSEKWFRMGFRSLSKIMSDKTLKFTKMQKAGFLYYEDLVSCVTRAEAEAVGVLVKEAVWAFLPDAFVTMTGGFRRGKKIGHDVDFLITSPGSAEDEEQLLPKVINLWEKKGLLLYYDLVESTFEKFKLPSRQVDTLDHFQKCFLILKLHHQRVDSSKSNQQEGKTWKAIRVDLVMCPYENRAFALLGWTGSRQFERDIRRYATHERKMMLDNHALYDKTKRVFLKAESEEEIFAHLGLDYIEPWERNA

Nc1nc2c(ncn2[C@H]2CC[C@@H](COP(=O)(O)OP(=O)(O)OP(=O)(O)O)O2)c(=O)[nH]1 [ddGTP, dideoxyguanosine triphosphate]
pIC50 [1]: 4.74

OC[C@H]1O[C@@H](n2cnc3c2N=CNC[C@H]3O)[C@H](O)[C@@H]1O [CF, coformycin]
effect on cell viability [2]: no effect

Cc1cn([C@H]2C[C@H](N=[N+]=[N-])[C@@H](CO[P@](=O)(O)O[P@](=O)(O)OP(=O)(O)O)O2)c(=O)[nH]c1=O [AZTTP, 3'-azido thymidine triphosphate, reference compound]
pIC50 [1]: 3.88

Nc1ncnc2c1ncn2[C@H]1CC[C@@H](CO)O1 [ddA, dideoxyadenosine]
inhibition at 250 µM (TdT-positive cell lines; 250 uM ddA, read-out: growth inhibition, range over all four TdT-positive cell lines): 30 to 80%
inhibition at 500 µM (TdT-positive cell lines; 500 uM ddA, read-out: growth inhibition, range over TdT-positive lines): 92 to 99%
inhibition at 250 µM (L1210): 15%
inhibition at 500 µM (L1210): 50%
inhibition at 250 µM (298-26): 80%
inhibition at 500 µM (298-26): 99%
inhibition at 250 µM 8392: 0%
inhibition at 500 µM 8392: 0%
inhibition at 250 µM (ML3): 0%
inhibition at 500 µM (ML3): 40%
inhibition at 250 µM (NALM-6): 30%
inhibition at 500 µM (NALM-6): 95%
inhibition at 250 µM (HPB-ALL): 40%
inhibition at 500 µM (HPB-ALL): 99%
inhibition at 250 µM (MOLT-4): 60%
inhibition at 500 µM (MOLT-4): 92%
inhibition at 250 µM (TdT-negative cell lines; 250 uM ddA, read-out: growth inhibition, range over TdT-negative cells): 0 to 15%
inhibition at 500 µM (TdT-negative cell lines; 500 uM ddA, read-out: growth inhibition, 2 of the 3 TdT-negative lines): 40 to 50%

O=c1[nH]cnc2c1ncn2[C@H]1CC[C@@H](COP(=O)(O)OP(=O)(O)OP(=O)(O)O)O1 [ddITP, dideoxyinosine triphosphate]
pIC50 [1]: 4.70

Nc1ncnc2c1ncn2[C@H]1CC[C@@H](COP(=O)(O)OP(=O)(O)OP(=O)(O)O)O1 [ddATP, 2',3'-dideoxyadenosine triphosphate]
effect on DNA polymerase alpha enzyme activity (FIG. 1) (DNA polymerase alpha): does not recognize
pIC50 [1]: 5.05
effect on TdT polymerization reaction (FIG. 1) ([1]; micromolar concentrations of ddATP): dramatically inhibits
chain termination: residues added by TdT to 15 MER initiator (FIG. 2) [3]: only one residue is added

Nc1ccn([C@H]2CC[C@@H](COP(=O)(O)OP(=O)(O)OP(=O)(O)O)O2)c(=O)n1 [ddCTP, dideoxycytosine triphosphate]
pIC50 [1]: 4.61

Cc1cn([C@H]2CC[C@@H](COP(=O)(O)OP(=O)(O)OP(=O)(O)O)O2)c(=O)[nH]c1=O [ddTTP, 2',3'-dideoxythymidine triphosphate]
pIC50 [1]: 4.33
